Measurements reported in PubChem BioAssay (NCI).
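How tested: cells in 96-well plates exposed to compound for 48 hours at five concentrations. TGI: total growth inhibition.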

Experiments:
Assay in all cases: NCI anticancer screen, dose series, 48 h
OVCAR-5 ovarian = test system: OVCAR-5 ovarian
KM12 colon = test system: KM12 colon
CCRF-CEM leukemia = test system: CCRF-CEM leukemia
DU-145 prostate = test system: DU-145 prostate
MOLT-4 leukemia = test system: MOLT-4 leukemia
A549 NSCLC = test system: A549 NSCLC
HT29 colon = test system: HT29 colon
UACC-62 melanoma = test system: UACC-62 melanoma
SNB-75 CNS = test system: SNB-75 CNS
ACHN renal = test system: ACHN renal
HOP-92 NSCLC = test system: HOP-92 NSCLC
BT-549 breast = test system: BT-549 breast
HS 578T breast = test system: HS 578T breast
MDA-MB-435 = test system: MDA-MB-435
MDA-N = test system: MDA-N
U251 CNS = test system: U251 CNS
RPMI-8226 leukemia = test system: RPMI-8226 leukemia
SK-MEL-2 melanoma = test system: SK-MEL-2 melanoma
LOX IMVI melanoma = test system: LOX IMVI melanoma
SNB-19 CNS = test system: SNB-19 CNS
IGROV1 ovarian = test system: IGROV1 ovarian
EKVX NSCLC = test system: EKVX NSCLC
OVCAR-3 ovarian = test system: OVCAR-3 ovarian
SF-295 CNS = test system: SF-295 CNS
PC-3 prostate = test system: PC-3 prostate
CAKI-1 renal = test system: CAKI-1 renal
UACC-257 melanoma = test system: UACC-257 melanoma
SF-539 CNS = test system: SF-539 CNS
SF-268 CNS = test system: SF-268 CNS
OVCAR-8 ovarian = test system: OVCAR-8 ovarian
HOP-62 NSCLC = test system: HOP-62 NSCLC
SR leukemia = test system: SR leukemia
786-0 renal = test system: 786-0 renal
K-562 leukemia = test system: K-562 leukemia
HCC-2998 colon = test system: HCC-2998 colon
COLO 205 colon = test system: COLO 205 colon
T-47D breast = test system: T-47D breast
NCI-H460 lung = test system: NCI-H460 lung
TK-10 renal = test system: TK-10 renal
SK-MEL-28 melanoma = test system: SK-MEL-28 melanoma
HCT-15 colon = test system: HCT-15 colon
SK-MEL-5 melanoma = test system: SK-MEL-5 melanoma
HL-60(TB) leukemia = test system: HL-60(TB) leukemia
SW-620 colon = test system: SW-620 colon
UO-31 renal = test system: UO-31 renal
HCT-116 colon = test system: HCT-116 colon
MDA-MB-231 breast = test system: MDA-MB-231 breast
SK-OV-3 ovarian = test system: SK-OV-3 ovarian
SN12C renal = test system: SN12C renal
A498 renal = test system: A498 renal
M14 melanoma = test system: M14 melanoma
MCF7 breast = test system: MCF7 breast
OVCAR-4 ovarian = test system: OVCAR-4 ovarian
NCI/ADR-RES ovarian = test system: NCI/ADR-RES ovarian

## Cc1ccc2nc(Cl)c(/C=N/N3C(=O)/C(=C/c4ccccc4S)N=C3c3ccccc3)cc2c1
OVCAR-5 ovarian
  TGI: > 100 µM
KM12 colon
  TGI: > 100 µM
CCRF-CEM leukemia
  TGI: > 100 µM
DU-145 prostate
  TGI: > 100 µM
MOLT-4 leukemia
  TGI: 15.1 µM
A549 NSCLC
  TGI: > 100 µM
HT29 colon
  TGI: > 100 µM
UACC-62 melanoma
  TGI: > 100 µM
SNB-75 CNS
  TGI: 86.5 µM
ACHN renal
  TGI: > 100 µM
HOP-92 NSCLC
  TGI: > 100 µM
BT-549 breast
  TGI: > 100 µM
HS 578T breast
  TGI: 58 µM
MDA-MB-435
  TGI: 31.8 µM
MDA-N
  TGI: 40.5 µM
U251 CNS
  TGI: > 100 µM
RPMI-8226 leukemia
  TGI: 68.1 µM
SK-MEL-2 melanoma
  TGI: 52.2 µM
LOX IMVI melanoma
  TGI: > 100 µM
SNB-19 CNS
  TGI: > 100 µM
IGROV1 ovarian
  TGI: > 100 µM
EKVX NSCLC
  TGI: > 100 µM
OVCAR-3 ovarian
  TGI: 28.2 µM
SF-295 CNS
  TGI: 84 µM
PC-3 prostate
  TGI: > 100 µM
CAKI-1 renal
  TGI: > 100 µM
UACC-257 melanoma
  TGI: > 100 µM
SF-539 CNS
  TGI: 43 µM
SF-268 CNS
  TGI: > 100 µM
OVCAR-8 ovarian
  TGI: > 100 µM
HOP-62 NSCLC
  TGI: > 100 µM
SR leukemia
  TGI: 60.8 µM
786-0 renal
  TGI: > 100 µM
K-562 leukemia
  TGI: 49 µM
HCC-2998 colon
  TGI: > 100 µM
COLO 205 colon
  TGI: > 100 µM
T-47D breast
  TGI: > 100 µM
NCI-H460 lung
  TGI: > 100 µM
TK-10 renal
  TGI: > 100 µM
SK-MEL-28 melanoma
  TGI: > 100 µM
HCT-15 colon
  TGI: > 100 µM
SK-MEL-5 melanoma
  TGI: > 100 µM
HL-60(TB) leukemia
  TGI: 61.6 µM
SW-620 colon
  TGI: > 100 µM
UO-31 renal
  TGI: > 100 µM
HCT-116 colon
  TGI: > 100 µM
MDA-MB-231 breast
  TGI: > 100 µM
SK-OV-3 ovarian
  TGI: > 100 µM
SN12C renal
  TGI: > 100 µM
A498 renal
  TGI: > 100 µM
M14 melanoma
  TGI: 79.4 µM
MCF7 breast
  TGI: > 100 µM
OVCAR-4 ovarian
  TGI: > 100 µM
NCI/ADR-RES ovarian
  TGI: 76.5 µM
